Test results taken from PubChem BioAssay (NCI).
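Test compounds were applied to cells in 96-well plates for 48 hours at 5 doses. TGI: total growth inhibition.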

Experiments:
Assay in all cases: DTP human tumour cell line panel, 48 h
HCC-2998 colon = tested on: HCC-2998 colon
HCT-15 colon = tested on: HCT-15 colon
HL-60(TB) leukemia = tested on: HL-60(TB) leukemia
HOP-62 NSCLC = tested on: HOP-62 NSCLC
HS 578T breast = tested on: HS 578T breast
IGROV1 ovarian = tested on: IGROV1 ovarian
K-562 leukemia = tested on: K-562 leukemia
MDA-MB-231 breast = tested on: MDA-MB-231 breast
MDA-MB-435 = tested on: MDA-MB-435
MDA-N = tested on: MDA-N
MOLT-4 leukemia = tested on: MOLT-4 leukemia
NCI-H522 lung = tested on: NCI-H522 lung
PC-3 prostate = tested on: PC-3 prostate
RPMI-8226 leukemia = tested on: RPMI-8226 leukemia
RXF 393 renal = tested on: RXF 393 renal
SK-MEL-2 melanoma = tested on: SK-MEL-2 melanoma
SN12C renal = tested on: SN12C renal
SR leukemia = tested on: SR leukemia
TK-10 renal = tested on: TK-10 renal

`CSc1c(C(=O)Nc2ccc(Cl)cc2)c(N)[nH]c(=O)c1C#N` showed a TGI (HCC-2998 colon) of over 90.2 µM, a TGI (HCT-15 colon) of over 100 µM and a TGI (HL-60(TB) leukemia) of over 100 µM. The TGI (HOP-62 NSCLC) was 73 µM, the TGI (HS 578T breast) was over 100 µM and the TGI (IGROV1 ovarian) was over 100 µM. It also gave a TGI (K-562 leukemia) of over 100 µM, a TGI (MDA-MB-231 breast) of over 60.9 µM and a TGI (MDA-MB-435) of over 70.9 µM. It also gave a TGI (MDA-N) of over 70 µM, a TGI (MOLT-4 leukemia) of over 91.9 µM and a TGI (NCI-H522 lung) of 51.7 µM. It also gave a TGI (PC-3 prostate) of 47.7 µM, a TGI (RPMI-8226 leukemia) of over 100 µM and a TGI (RXF 393 renal) of over 96.3 µM. It also gave a TGI (SK-MEL-2 melanoma) of 32.2 µM, a TGI (SN12C renal) of over 82.2 µM and a TGI (SR leukemia) of over 100 µM. It also gave a TGI (TK-10 renal) of over 100 µM.
